Source: PubChem BioAssay (NCI)
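Here, GI50 denotes the concentration required for 50% inhibition of growth. TGI: concentration producing complete growth inhibition.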

Experiments:
Assay in all cases: NCI-60 cell line screen, 384-well format
[1] = tested on: ACHN renal
[2] = tested on: BT-549 breast
[3] = tested on: COLO 205 colon
[4] = tested on: HCC-2998 colon
[5] = tested on: IGROV1 ovarian
[6] = tested on: MCF7 breast
[7] = tested on: NCI-H322M lung
[8] = tested on: OVCAR-4 ovarian
[9] = tested on: RXF 393 renal
[10] = tested on: SNB-19 CNS
[11] = tested on: T-47D breast
[12] = tested on: TK-10 renal
[13] = tested on: UACC-257 melanoma

In the case of `COc1nn(C)cc1Nc1nccc(-c2c[nH]c3c(NC(=O)[C@@H](C)N4CCN(C)CC4)cccc23)n1`, the GI50 [1] is reported as 21.3 µM, the TGI [1] is reported as over 67.2 µM and the GI50 [2] is reported as 17.2 µM. For the same compound, the TGI [2] was 32.4 µM, the GI50 [3] was 20.5 µM and the TGI [3] was 36.9 µM. It also gave a GI50 [4] of 19.5 µM, a TGI [4] of 37.3 µM and a GI50 [5] of 18.8 µM. The TGI [5] was 52.4 µM, the GI50 [6] was 18 µM and the TGI [6] was over 71.9 µM. The GI50 [7] was over 52.3 µM, the TGI [7] was over 100 µM and the GI50 [8] was 30.2 µM. The TGI [8] was over 62.1 µM, the GI50 [9] was 14.9 µM and the TGI [9] was 30.6 µM. The GI50 [10] was 41.2 µM, the TGI [10] was over 100 µM and the GI50 [11] was 29 µM. The TGI [11] was over 89.4 µM, the GI50 [12] was 20.5 µM and the TGI [12] was over 60 µM. The GI50 [13] was 16.9 µM and the TGI [13] was 30.7 µM.
